Assays:
[1] = In vitro clearance, human; type: in vitro ADME
[2] = In vitro clearance, rat; type: in vitro ADME
[3] = target: T1, hM5 (Homo sapiens, UniProt P08912); test: Calcium mobilization assay with hM5-CHO cells, EC80 acetylcholine; type: cell-based; conditions: for hM5 IC50: hM5-CHO cells, EC80 acetylcholine, one experiment in triplicate
T1 sequence (P08912 1-532): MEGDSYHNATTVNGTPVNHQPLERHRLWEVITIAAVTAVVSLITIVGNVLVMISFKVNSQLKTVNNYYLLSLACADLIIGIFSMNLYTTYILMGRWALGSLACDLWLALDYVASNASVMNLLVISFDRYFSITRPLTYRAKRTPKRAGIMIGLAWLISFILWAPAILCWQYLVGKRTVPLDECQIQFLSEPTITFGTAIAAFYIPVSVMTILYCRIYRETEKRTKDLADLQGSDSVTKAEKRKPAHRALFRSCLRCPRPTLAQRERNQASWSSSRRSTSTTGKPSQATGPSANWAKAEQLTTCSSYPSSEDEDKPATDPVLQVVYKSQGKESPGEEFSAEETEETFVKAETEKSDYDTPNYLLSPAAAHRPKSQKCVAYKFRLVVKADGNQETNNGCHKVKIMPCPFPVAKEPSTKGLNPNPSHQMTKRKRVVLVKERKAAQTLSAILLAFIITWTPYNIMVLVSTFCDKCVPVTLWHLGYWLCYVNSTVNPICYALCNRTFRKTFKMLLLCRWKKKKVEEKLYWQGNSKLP

Row | Compound | Predicted CLhep (h) [1] [mL/min/kg] | Predicted CLhep (r) [2] [mL/min/kg] | hM5 IC50 [3] | fold more potent than (S)-12a (12c) (hM5 IC50) ([3]; versus 12c) [fold]
1 | O=C(Nc1ccc2scnc2c1)[C@H]1CCN(S(=O)(=O)c2ccc3c(c2)CCO3)C1 [12c] | 16 | 52 |  | 
2 | O=C(Nc1ccc2scnc2c1)[C@@H]1CCN(S(=O)(=O)c2ccc3ncsc3c2)C1 [17j] | 13 | 29 |  | 
3 | O=C(Nc1ccc2scnc2c1)C12CC1CN(S(=O)(=O)c1ccc3c(c1)CCO3)C2 (centres unmarked) [12h] | 18 | 60 |  | 
4 | O=C(Nc1ccc2scnc2c1)[C@@H]1CCN(S(=O)(=O)c2cccnc2)C1 [17c] |  |  | inactive | 
5 | O=C(Nc1ccc2scnc2c1)[C@@H]1CCN(S(=O)(=O)c2ccc3c(c2)CCC3)C1 [17h] |  |  | significantly less active | 
6 | O=C(Nc1ccc2scnc2c1)[C@@H]1CCN(S(=O)(=O)c2ccc3c(c2)OCO3)C1 [17g] | 12 | 55 |  | 
7 | O=C(Nc1ccc2scnc2c1)[C@@H]1CCN(S(=O)(=O)c2ccc(Cl)nc2)C1 [17d] |  |  | inactive | 
8 | Cn1cc(S(=O)(=O)N2CC[C@@H](C(=O)Nc3ccc4scnc4c3)C2)c(C(F)(F)F)n1 [17b] |  |  | inactive | 
9 | [2H]C1([2H])Oc2ccc(S(=O)(=O)N3CC[C@@H](C(=O)Nc4ccc5scnc5c4)C3)cc2C1([2H])[2H] [17f] | 15 | 49 |  | 
10 | C[C@H]1CN(S(=O)(=O)c2ccc3c(c2)CCO3)C[C@@H]1C(=O)Nc1ccc2scnc2c1 [12f] | 4 | 29 |  | 
11 | O=C(Nc1ccc2scnc2c1)C1CCN(S(=O)(=O)c2ccc3c(c2)CCO3)C1 (centres unmarked) [12a] | 16 | 55 |  | 
12 | O=C(Nc1ccc2scnc2c1)[C@@H]1CCN(S(=O)(=O)c2ccc3c(c2)CCO3)C1 [12d] | 15 | 59 |  | 21
13 | C[C@@H]1CN(S(=O)(=O)c2ccc3c(c2)CCO3)C[C@@H]1C(=O)Nc1ccc2scnc2c1 [12e] | 19 | 64 |  | 
14 | Cc1nn(C)cc1S(=O)(=O)N1CC[C@@H](C(=O)Nc2ccc3scnc3c2)C1 [17a] |  |  | inactive | 
15 | O=C(Nc1ccc2scnc2c1)C1CN(S(=O)(=O)c2ccc3c(c2)CCO3)C1 [12b] | 16 | 57 |  | 
16 | O=C(Nc1ccc2scnc2c1)[C@H]1CN(S(=O)(=O)c2ccc3c(c2)CCO3)C[C@@H]1C(F)(F)F [12g] |  |  | inactive | 
17 | O=C(Nc1ccc2scnc2c1)[C@@H]1CCN(S(=O)(=O)c2ccc3ncccc3c2)C1 [17i] | 14 | 51 |  | 
